In ChEMBL document CHEMBL1201862, “PubChem BioAssay data set” (2004):
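These data come from cells grown in 96-well plates and exposed to compound for 48 hours at five concentrations. GI50: concentration for 50% inhibition of growth.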 Activity calls are given as the source filed them. Rule as the data show it: active = GI50 up to about 1.1 µM and inactive = higher.

Experiments:
Test in all cases: NCI tumour cell line growth inhibition, 48 h
786-0 = test system: 786-0
A498 = test system: A498
A549 = test system: A549
ACHN = test system: ACHN
BT-549 = test system: BT-549
CAKI-1 = test system: CAKI-1
CCRF-CEM = test system: CCRF-CEM
COLO 205 = test system: COLO 205
DU-145 = test system: DU-145
EKVX = test system: EKVX
HCC 2998 = test system: HCC 2998
HCT-116 = test system: HCT-116
HCT-15 = test system: HCT-15
HL-60 = test system: HL-60
HOP-92 = test system: HOP-92
HT-29 = test system: HT-29
Hs-578T = test system: Hs-578T
IGROV-1 = test system: IGROV-1
K562 = test system: K562
KM12 = test system: KM12
LOX IMVI = test system: LOX IMVI
M14 = test system: M14
MCF7 = test system: MCF7
MDA-MB-231 = test system: MDA-MB-231
MDA-MB-435 = test system: MDA-MB-435
MDA-N = test system: MDA-N
MOLT-4 = test system: MOLT-4
Malme-3M = test system: Malme-3M
NCI-H226 = test system: NCI-H226
NCI-H23 = test system: NCI-H23
NCI-H460 = test system: NCI-H460
NCI/ADR-RES = test system: NCI/ADR-RES
OVCAR-3 = test system: OVCAR-3
OVCAR-4 = test system: OVCAR-4
OVCAR-5 = test system: OVCAR-5
OVCAR-8 = test system: OVCAR-8
PC-3 = test system: PC-3
RPMI-8226 = test system: RPMI-8226
RXF 393 = test system: RXF 393
SF-268 = test system: SF-268
SF-295 = test system: SF-295
SF-539 = test system: SF-539
SK-MEL-28 = test system: SK-MEL-28
SK-MEL-2 = test system: SK-MEL-2
SK-MEL-5 = test system: SK-MEL-5
SK-OV-3 = test system: SK-OV-3
SNB-19 = test system: SNB-19
SNB-75 = test system: SNB-75
SR = test system: SR
SW-620 = test system: SW-620
T47D = test system: T47D
TK-10 = test system: TK-10
U-251 = test system: U-251
UACC-257 = test system: UACC-257
UACC-62 = test system: UACC-62
UO-31 = test system: UO-31
HOP-62 = test system: HOP-62
NCI-H522 = test system: NCI-H522
SN12C = test system: SN12C

With `Clc1ccc(C2=CC(c3ccccc3)N3C(=N[C@H]4CCCC[C@@H]43)N2)cc1` (stereo partly specified) the GI50 (786-0) was 2.79 µM (inactive), the GI50 (A498) was 10.4 µM (inactive) and the GI50 (A549) was 5.47 µM (inactive). For the same compound, the GI50 (ACHN) was 5.24 µM (inactive), the GI50 (BT-549) was 9.12 µM (inactive) and the GI50 (CAKI-1) was 13.9 µM (inactive). The GI50 (CCRF-CEM) was 4.94 µM (inactive), the GI50 (COLO 205) was 1.77 µM (inactive) and the GI50 (DU-145) was 8.41 µM (inactive). For the same compound, the GI50 (EKVX) was 4.47 µM (inactive), the GI50 (HCC 2998) was 2.08 µM (inactive) and the GI50 (HCT-116) was 3.03 µM (inactive). For the same compound, the GI50 (HCT-15) was 4.08 µM, the GI50 (HL-60) was 2.82 µM (inactive) and the GI50 (HOP-92) was 4.68 µM (inactive). The GI50 (HT-29) was 2.39 µM (inactive), the GI50 (Hs-578T) was 3.12 µM (inactive) and the GI50 (IGROV-1) was 3.39 µM (inactive). For the same compound, the GI50 (K562) was 2.09 µM (inactive), the GI50 (KM12) was 2.07 µM (inactive) and the GI50 (LOX IMVI) was 6.46 µM (inactive). For the same compound, the GI50 (M14) was 2.98 µM (inactive), the GI50 (MCF7) was 3.55 µM (inactive) and the GI50 (MDA-MB-231) was 9.08 µM (inactive). For the same compound, the GI50 (MDA-MB-435) was 7.57 µM (inactive), the GI50 (MDA-N) was 6.05 µM (inactive) and the GI50 (MOLT-4) was 2.64 µM (inactive). For the same compound, the GI50 (Malme-3M) was 2.67 µM (inactive), the GI50 (NCI-H226) was 8.85 µM (inactive) and the GI50 (NCI-H23) was 7.82 µM (inactive). The GI50 (NCI-H460) was 2.88 µM (inactive), the GI50 (NCI/ADR-RES) was 4.35 µM (inactive) and the GI50 (OVCAR-3) was 6.4 µM (inactive). The GI50 (OVCAR-4) was 5.61 µM (inactive), the GI50 (OVCAR-5) was 11.5 µM (inactive) and the GI50 (OVCAR-8) was 2.7 µM (inactive). For the same compound, the GI50 (PC-3) was 6.56 µM (inactive), the GI50 (RPMI-8226) was 2.31 µM (inactive) and the GI50 (RXF 393) was 2.47 µM (inactive). The GI50 (SF-268) was 6.14 µM (inactive), the GI50 (SF-295) was 7.67 µM (inactive) and the GI50 (SF-539) was 6.08 µM (inactive). For the same compound, the GI50 (SK-MEL-28) was 2.79 µM (inactive), the GI50 (SK-MEL-2) was 13.6 µM (inactive) and the GI50 (SK-MEL-5) was 1.71 µM (inactive). For the same compound, the GI50 (SK-OV-3) was 14.3 µM (inactive), the GI50 (SNB-19) was 4.55 µM (inactive) and the GI50 (SNB-75) was 3.48 µM (inactive). For the same compound, the GI50 (SR) was 2.14 µM (inactive), the GI50 (SW-620) was 3.74 µM (inactive) and the GI50 (T47D) was 6.4 µM (inactive). For the same compound, the GI50 (TK-10) was 7.5 µM (inactive), the GI50 (U-251) was 4.54 µM (inactive) and the GI50 (UACC-257) was 12.9 µM (inactive). The GI50 (UACC-62) was 5.82 µM (inactive) and the GI50 (UO-31) was 10.8 µM (inactive).

With `Cc1c2c(n(CC(c3ccccc3)c3ccccc3)c1C)NN=C(C#N)S2(=O)=O` the GI50 (786-0) was > 100 µM (inactive), the GI50 (A498) was > 100 µM (inactive) and the GI50 (A549) was > 100 µM (inactive). The GI50 (ACHN) was > 100 µM (inactive), the GI50 (BT-549) was > 100 µM (inactive) and the GI50 (CAKI-1) was > 100 µM (inactive). For the same compound, the GI50 (COLO 205) was > 100 µM (inactive), the GI50 (DU-145) was > 100 µM (inactive) and the GI50 (EKVX) was > 100 µM (inactive). The GI50 (HCC 2998) was > 100 µM (inactive), the GI50 (HCT-116) was 74 µM (inactive) and the GI50 (HCT-15) was > 100 µM. For the same compound, the GI50 (HOP-62) was > 100 µM (inactive), the GI50 (HOP-92) was > 100 µM (inactive) and the GI50 (HT-29) was > 100 µM (inactive). The GI50 (Hs-578T) was 43.1 µM (inactive), the GI50 (IGROV-1) was > 100 µM (inactive) and the GI50 (KM12) was 66.2 µM (inactive). For the same compound, the GI50 (LOX IMVI) was > 100 µM (inactive), the GI50 (M14) was > 100 µM (inactive) and the GI50 (MCF7) was > 100 µM (inactive). For the same compound, the GI50 (MDA-MB-231) was 33.9 µM (inactive), the GI50 (MDA-MB-435) was > 100 µM (inactive) and the GI50 (MDA-N) was > 100 µM (inactive). For the same compound, the GI50 (MOLT-4) was 37.7 µM (inactive), the GI50 (NCI-H226) was > 100 µM (inactive) and the GI50 (NCI-H23) was > 100 µM (inactive). For the same compound, the GI50 (NCI-H460) was > 100 µM (inactive), the GI50 (NCI-H522) was 45.6 µM (inactive) and the GI50 (NCI/ADR-RES) was > 100 µM (inactive). For the same compound, the GI50 (OVCAR-3) was > 100 µM (inactive), the GI50 (OVCAR-4) was > 100 µM (inactive) and the GI50 (OVCAR-5) was > 100 µM (inactive). For the same compound, the GI50 (OVCAR-8) was > 100 µM (inactive), the GI50 (PC-3) was > 100 µM (inactive) and the GI50 (RPMI-8226) was > 100 µM (inactive). For the same compound, the GI50 (SF-268) was 64.1 µM (inactive), the GI50 (SF-295) was > 100 µM (inactive) and the GI50 (SF-539) was > 100 µM (inactive). For the same compound, the GI50 (SK-MEL-28) was > 100 µM (inactive), the GI50 (SK-MEL-2) was > 100 µM (inactive) and the GI50 (SK-MEL-5) was > 100 µM (inactive). For the same compound, the GI50 (SK-OV-3) was > 100 µM (inactive), the GI50 (SN12C) was > 100 µM (inactive) and the GI50 (SNB-19) was > 100 µM (inactive). For the same compound, the GI50 (SNB-75) was 98.4 µM (inactive), the GI50 (SR) was 35.2 µM (inactive) and the GI50 (SW-620) was > 100 µM (inactive). The GI50 (T47D) was > 100 µM (inactive), the GI50 (TK-10) was > 100 µM (inactive) and the GI50 (U-251) was > 100 µM (inactive). For the same compound, the GI50 (UACC-257) was > 100 µM (inactive), the GI50 (UACC-62) was 97.7 µM (inactive) and the GI50 (UO-31) was > 100 µM (inactive).

For `O=C1Nc2ccccc2/C1=N/N=c1\cccc[nH]1`, the GI50 (786-0) was 12.9 µM (inactive), the GI50 (A498) was 25.8 µM (inactive) and the GI50 (A549) was 48.8 µM (inactive). The GI50 (ACHN) was 11 µM (inactive), the GI50 (BT-549) was 43.6 µM (inactive) and the GI50 (CAKI-1) was 32.8 µM (inactive). The GI50 (CCRF-CEM) was 18.8 µM (inactive), the GI50 (COLO 205) was 33.7 µM (inactive) and the GI50 (DU-145) was 21 µM (inactive). For the same compound, the GI50 (EKVX) was 14.5 µM (inactive), the GI50 (HCC 2998) was 23.7 µM (inactive) and the GI50 (HCT-116) was 11.6 µM (inactive). For the same compound, the GI50 (HCT-15) was 30.3 µM, the GI50 (HL-60) was 16 µM (inactive) and the GI50 (HOP-62) was 34.1 µM (inactive). The GI50 (HT-29) was 22.2 µM (inactive), the GI50 (Hs-578T) was 39.1 µM (inactive) and the GI50 (IGROV-1) was 1 µM (active). The GI50 (K562) was 52.5 µM (inactive), the GI50 (KM12) was 10.8 µM (inactive) and the GI50 (LOX IMVI) was 28.8 µM (inactive). For the same compound, the GI50 (M14) was > 100 µM (inactive), the GI50 (MCF7) was 8.17 µM (inactive) and the GI50 (MDA-MB-231) was 12.6 µM (inactive). The GI50 (MDA-MB-435) was > 100 µM (inactive), the GI50 (MDA-N) was > 100 µM (inactive) and the GI50 (MOLT-4) was 49.3 µM (inactive). The GI50 (NCI-H226) was 16.1 µM (inactive), the GI50 (NCI-H23) was 28.2 µM (inactive) and the GI50 (NCI-H460) was 14.6 µM (inactive). The GI50 (NCI-H522) was 17.1 µM (inactive), the GI50 (NCI/ADR-RES) was 10.2 µM (inactive) and the GI50 (OVCAR-3) was 48.8 µM (inactive). For the same compound, the GI50 (OVCAR-4) was 20.2 µM (inactive), the GI50 (OVCAR-5) was 51.5 µM (inactive) and the GI50 (OVCAR-8) was 11.9 µM (inactive). The GI50 (PC-3) was 52.8 µM (inactive), the GI50 (RPMI-8226) was 20.6 µM (inactive) and the GI50 (RXF 393) was 97.3 µM (inactive). The GI50 (SF-268) was 35.4 µM (inactive), the GI50 (SF-295) was 51.9 µM (inactive) and the GI50 (SK-MEL-28) was > 100 µM (inactive). The GI50 (SK-MEL-2) was > 100 µM (inactive), the GI50 (SK-MEL-5) was 40.4 µM (inactive) and the GI50 (SK-OV-3) was 18.6 µM (inactive). The GI50 (SN12C) was 29.2 µM (inactive), the GI50 (SNB-19) was 30.7 µM (inactive) and the GI50 (SNB-75) was 21.5 µM (inactive). The GI50 (SR) was 14.3 µM (inactive), the GI50 (SW-620) was > 100 µM (inactive) and the GI50 (T47D) was 38.5 µM (inactive). The GI50 (TK-10) was 22.5 µM (inactive), the GI50 (U-251) was 19 µM (inactive) and the GI50 (UACC-257) was 41.8 µM (inactive). The GI50 (UACC-62) was 65.5 µM (inactive) and the GI50 (UO-31) was 12.1 µM (inactive).
